Laboratory results: US20260053794A1, “SOMATOSTATIN RECEPTOR 2 AGONISTS AND USES THEREOF” (Exelixis, Inc., priority 2022, published 2026)

Target: T1, Somatostatin Receptor 2 (SSTR2) (Homo sapiens, UniProt P30874)
T1 construct: expressed in transfected cells
Assay: Biochemical Assay for Activation of Somatostatin Receptor 2 (SSTR2), Cisbio HTRF cAMP assay
Type: cell-based
Details: average pEC50; HTRF cAMP assay in stably-transfected cell line expressing SSTR2; cells incubated with compounds for 1-2h
Procedure, shortened: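 A stably transfected SSTR2 cell line was incubated with compounds for 1-2h. Intracellular cAMP was then measured by competitive HTRF (cAMP Gs dynamic system), and pEC50 values were averaged.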

T1 sequence (P30874 whole entry, species assumed): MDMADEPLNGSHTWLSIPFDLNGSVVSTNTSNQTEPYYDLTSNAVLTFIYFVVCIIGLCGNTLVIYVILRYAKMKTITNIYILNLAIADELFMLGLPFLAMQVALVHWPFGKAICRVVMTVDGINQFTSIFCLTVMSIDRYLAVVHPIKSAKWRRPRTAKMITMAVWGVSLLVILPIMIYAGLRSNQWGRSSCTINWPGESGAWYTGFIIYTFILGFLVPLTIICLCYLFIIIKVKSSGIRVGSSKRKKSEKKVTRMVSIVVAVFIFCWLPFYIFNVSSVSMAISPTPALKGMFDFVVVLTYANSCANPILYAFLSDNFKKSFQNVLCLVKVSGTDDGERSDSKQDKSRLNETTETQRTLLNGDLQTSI

Work on Cc1cc(F)cc(-c2cnc3ccc(-c4cccc(C#N)c4O)cc3c2O[C@@H]2CC[C@H](N)C2)c1 [Compound 9] yielded an EC50 of 3.16 nM.

In the case of COc1cc(F)cc(-c2cnc3c(nc(-c4cccc(C#N)c4O)n3C)c2N2CCC(N)CC2)c1 [Compound 34], the EC50 is reported as 501 nM.

For Cc1cc(F)cc(-c2c[n+]3c4ccc(cc4c2N2CCC(N)CC2)-c2ccccc2OCCCC3)c1 [Compound 161], the EC50 was 10 nM.

In the case of COc1cc(F)cc(-c2cnc3[nH]c(-c4cc(F)cc(C(=O)O)c4)nc3c2N2CC[C@@H](N)[C@H](OC)C2)c1 [Compound 52], the EC50 is reported as > 10000 nM.

In the case of Cc1cc(F)cc(-c2cnc3ccc(-c4cc(F)cc(C(N)=O)c4)cc3c2OC2CCCC(CN)C2)c1 (centres unmarked) [Compound 21], the EC50 is reported as 20 nM.

Cc1cc(F)cc(-c2cnc3[nH]c(-c4ccc5[nH]c(=O)[nH]c5c4)nc3c2N2CCC(N)CC2)c1 [Compound 62] showed an EC50 of 631 nM.

Work on Cc1cc(F)cc(-c2cnc3ccc4cc3c2N2CCC(CC2)NC[C@H](O)CCOc2c(C#N)cccc2-4)c1 (single isomer, unassigned) [Compound 101] yielded an EC50 of 1580 nM.

O=C1NCCCNC2CCN(CC2)c2c(-c3cc(F)cc(F)c3)cnc3ccc(cc23)-c2cccc1n2 [Compound 80] showed an EC50 of 6.31 nM.

CC(N)CCN1Cc2ccc(F)cc2-c2cncc(C(=O)Nc3ccc(F)c(F)c3)c21 (centres unmarked) [Compound 109, 5-(3-aminobutyl)-N-(3,4-difluorophenyl)-9-fluoro-6H-benzo [c][1,6]naphthyridine-4-carboxamide] was tested, and the EC50 was 200 nM.

Work on NC(=O)c1cc(F)cc(-c2ccc3ncc(-c4cc(F)cc(F)c4)c(O[C@@H]4CC[C@H](N)C4)c3c2)c1 [Compound 10] yielded an EC50 of 10 nM.

CO[C@@H]1CN(c2c(-c3cc(C)cc(F)c3)cnc3[nH]c(-c4ccc5[nH]c(=O)[nH]c5c4)nc23)CC[C@H]1N [Compound 55] was tested, and the EC50 was > 10000 nM.

In the case of CO[C@@H]1CN(c2c(-c3cc(F)cc(F)c3)cnc3c2nc(-c2ccc4[nH]c(=O)[nH]c4c2)n3C)CC[C@H]1N [Compound 25], the EC50 is reported as > 10000 nM.

N[C@H]1CC[C@H](Oc2c(-c3cc(F)cc(F)c3)cnc3ccc(-c4cc(F)cc(F)c4)cc23)C1 [Compound 15] showed an EC50 of 12.6 nM.

For Cc1cc(F)cc(-c2cnc3ccc4cc3c2N2CCC(CC2)NCCCCOc2c(C#N)cccc2-4)c1 [Compound 73], the EC50 was 0.0251 nM.

For CN1c2c(cnc3ccc(-c4cc(F)cc(F)c4)cc23)-c2cc(F)cc(F)c2C1CCN (centres unmarked) [Compound 157], the EC50 was 10 nM.

For NC1CCN(c2c(-c3cc(F)cc(F)c3)cnc3ccc(C4=CC=CC5(O)C(=O)NCCN45)cc23)CC1 (centres unmarked) [Compound 151], the EC50 was 1.58 nM.

Compound NC1CCN(c2c(-c3nc4cc(F)c(F)cc4[nH]3)cnc3c2-c2cc(F)ccc2CO3)CC1 [Compound 121, 1-(2-(5,6-difluoro-1H-benzo[d]imidazol-2-yl)-9-fluoro-6H-isochromeno[3,4-b]pyridin-1-yl)piperidin-4-amine] has an EC50 of 631 nM.

For COc1cc(F)cc(-c2cnc3ccc(-c4ccc5[nH]c(=O)[nH]c5c4)cc3c2O[C@@H]2CC[C@H](N)C2)c1 [Compound 6], the EC50 was 63.1 nM.

COc1cc(F)cc(-c2cnc3c(nc(-c4ccc5[nH]c(=O)[nH]c5c4)n3C)c2N2CC[C@@H](N)[C@H](OC)C2)c1 [Compound 31] was tested, and the EC50 was > 10000 nM.

With CO[C@@H]1CN(c2c(-c3cc(F)cc(F)c3)cnc3c2nc(-c2cc(F)cc(C(N)=O)c2)n3C)CC[C@H]1N [Compound 24] the EC50 was > 5010 nM.

In the case of N[C@H]1CCN(c2c(-c3cc(F)cc(F)c3)cnc3c2C(=O)N(c2ccc(F)c(F)c2)CC3)C1 [Compound 114], the EC50 is reported as > 10000 nM.

NC1CCN(c2c(-c3cc(F)cc(F)c3)cnc3sc(-c4cc(F)cc(F)c4)cc23)CC1 [Compound 134] gave an EC50 of 631 nM.

For Cc1cc(F)cc(-c2cnc(Cl)c(-c3nc4cc(F)c(F)cc4[nH]3)c2N2CCC(N)CC2)c1 [Compound 104, 1-(2-chloro-3-(5,6-difluoro-1H-benzo[d]imidazol-2-yl)-5-(3-fluoro-5-methylphenyl)pyridin-4-yl)piperidin-4-amine], the EC50 was 0.0794 nM.

With NCC1CCCCC1Oc1c(-c2cc(F)cc(F)c2)cnc2ccc(-c3cc(F)cc(F)c3)cc12 (centres unmarked) [Compound 20] the EC50 was 3980 nM.

With Cn1c(-c2cccc(Br)c2O)nc2ncc(-c3cc(F)cc(F)c3)c(N3CCC(NC(=O)OC(C)(C)C)CC3)c21 [Compound 44] the EC50 was > 10000 nM.

With Cc1cc(F)cc(-c2cnc3ccc(-c4cc(F)cc(C(N)=O)c4)cc3c2O[C@H]2C[C@H](N)C2)c1 [Compound 19] the EC50 was 1 nM.

In the case of Cc1cc(F)cc(-c2cnc3ccc(-c4cc(F)cc(C(N)=O)c4)cc3c2O[C@H]2CC[C@@H](N)C2)c1 [Compound 3], the EC50 is reported as 7.94 nM.

With COCOc1c(C#N)cccc1-c1ccc2ncc(-c3cc(F)cc(F)c3)c(O[C@H]3CC[C@@H](NC(=O)OC(C)(C)C)C3)c2c1 [Compound 140] the EC50 was > 10000 nM.

Cn1c(-c2cccc(Br)c2O)nc2c(N3CCC(N)CC3)c(-c3cc(F)cc(F)c3)cnc21 [Compound 41] gave an EC50 of 158 nM.
